In patent publication US20050288307A1, “Anti-viral compounds” (priority 2002, published 2005) one finds IC50 data, which are given here for 26 molecules.

Where two headings read alike, the source gives them in different places.

One test has as its target CDK9/cyclin T1 (Homo sapiens, UniProt P50750). Nature of the test: CDK9 assay (CTD peptide substrate). The format is biochemical. On the procedure: (§1) CTD peptide substrate (biotinyl-Ahx-(Tyr-Ser-Pro-Thr-Ser-Pro-Ser)4-NH2; 1-2 mg/mL) and recombinant human CDK7/cyclin H, CDK9/cyclin T1, or CDK9/cyclin K (0.5-2 μg) were incubated for 45 min at 30° C. in the presence of varying amounts of test compound in 20 mM MOPS pH 7.2, 25 mM β-glycerophosphate, 5 mM EGTA, 1 mM DTT, 1 mM sodium vanadate, 15 mM MgCl2, and 100 μM ATP (containing a trace amount of ^32PγATP) in a total volume of 25 μL in a 96-well microtiter plate. The reaction was stopped by placing the plate on ice for 2 min. Avidin (50 μg) was added to each well, and the plate was incubated at room temp for 30 min. The samples were transferred to a 96-well P81 filter plate, and washed (4×200 μL per well) with 75 mM phosphoric acid. Microscint 40 scintillation liquid (50 μL) was added to each well, and the amount of ^32P incorporation for each sample was measured using a Packard Topcount microplate scintillation counter.

The target of a further test is CDK7/cyclin H (Homo sapiens, UniProt P50613). As to the kind of experiment: CDK7 assay (CTD peptide substrate). The format is biochemical. On the procedure: as §1
CDK7/cyclin H, sequence (P50613 whole entry): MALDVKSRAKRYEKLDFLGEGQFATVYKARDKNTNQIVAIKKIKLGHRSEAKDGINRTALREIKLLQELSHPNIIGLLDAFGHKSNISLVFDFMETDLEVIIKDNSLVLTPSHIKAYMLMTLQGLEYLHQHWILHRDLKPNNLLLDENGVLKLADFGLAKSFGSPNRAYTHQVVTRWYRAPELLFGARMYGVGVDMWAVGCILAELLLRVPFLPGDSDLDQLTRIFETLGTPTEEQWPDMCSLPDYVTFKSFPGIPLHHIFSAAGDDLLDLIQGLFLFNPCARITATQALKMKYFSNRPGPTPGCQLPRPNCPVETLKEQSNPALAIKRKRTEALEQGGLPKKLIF
CDK7/cyclin H, sequence (P51946 whole entry partner): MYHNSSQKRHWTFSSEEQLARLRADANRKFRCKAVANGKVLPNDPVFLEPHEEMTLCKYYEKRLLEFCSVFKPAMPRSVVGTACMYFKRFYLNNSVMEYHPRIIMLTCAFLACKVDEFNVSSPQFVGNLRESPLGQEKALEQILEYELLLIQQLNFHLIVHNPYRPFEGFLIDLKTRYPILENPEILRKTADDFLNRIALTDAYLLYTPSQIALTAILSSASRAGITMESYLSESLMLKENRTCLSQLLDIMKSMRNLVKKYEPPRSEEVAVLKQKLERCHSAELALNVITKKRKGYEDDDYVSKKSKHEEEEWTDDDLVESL
In the next test the target is T1, CDK2/Cyclin E (Homo sapiens, UniProt P24941).
T1 construct: His; made in house; host or cells: Sf9 insect cells (baculovirus)
As to the kind of experiment: CDK2/cyclin E kinase assay (GST-Rb phosphorylation).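 Also: enzyme source: His-tagged CDK2/cyclin E complex co-expressed recombinantly in Sf9 insect cells using baculovirus constructs.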 The format is biochemical.

Another test addresses CDK2/cyclin A (Homo sapiens, UniProt P24941). Nature of the test: CDK2/cyclin A kinase assay.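 Also: Read-out is incorporated radioactivity retained on P81 filter plates and quantified by scintillation counting.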 The format is biochemical.
In the next test the target is CDK1/Cyclin B (Homo sapiens, UniProt P06493). As to the kind of experiment: CDK1/cyclin B kinase assay (GST-Rb phosphorylation).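 Also: Enzyme: His-tagged CDK1/Cyclin B co-expressed in baculovirus-infected Sf9 insect cells, purified via metal-chelate chromatography.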
CDK1/Cyclin B, sequence (P06493 whole entry, species assumed): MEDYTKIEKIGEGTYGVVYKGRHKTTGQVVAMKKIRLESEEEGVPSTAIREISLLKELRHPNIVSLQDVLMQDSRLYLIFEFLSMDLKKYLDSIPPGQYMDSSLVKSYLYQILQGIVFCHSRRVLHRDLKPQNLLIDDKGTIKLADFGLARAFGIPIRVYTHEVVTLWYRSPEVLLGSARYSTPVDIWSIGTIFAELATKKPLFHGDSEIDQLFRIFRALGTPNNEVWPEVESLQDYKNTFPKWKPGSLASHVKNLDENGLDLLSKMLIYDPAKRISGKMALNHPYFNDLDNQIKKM
CDK1/Cyclin B, sequence (P14635 whole entry partner, species assumed): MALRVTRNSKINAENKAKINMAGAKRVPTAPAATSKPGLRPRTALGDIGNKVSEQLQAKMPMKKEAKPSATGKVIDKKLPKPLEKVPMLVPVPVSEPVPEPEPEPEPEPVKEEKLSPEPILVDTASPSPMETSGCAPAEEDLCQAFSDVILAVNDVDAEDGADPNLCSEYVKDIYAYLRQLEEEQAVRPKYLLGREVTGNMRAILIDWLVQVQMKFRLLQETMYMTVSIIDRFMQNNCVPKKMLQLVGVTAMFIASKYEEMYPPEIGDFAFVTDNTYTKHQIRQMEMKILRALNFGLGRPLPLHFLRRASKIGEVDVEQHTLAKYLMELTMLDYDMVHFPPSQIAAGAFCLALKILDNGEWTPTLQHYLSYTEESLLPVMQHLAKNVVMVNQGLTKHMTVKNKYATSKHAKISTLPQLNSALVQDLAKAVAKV
A further test concerns the target CDK4/Cyclin D1 (Homo sapiens, UniProt P11802). Nature of the test: CDK4/cyclin D1 kinase assay (GST-Rb phosphorylation). The format is biochemical.
Setting [1] is: Table 3, read-out: Average IC50 CDK9 cyclin T1.
The mark [2] stands for this setting: Table 3, read-out: Average IC50 CDK7 cyclin H.
[3] abbreviates: Table 3, read-out: Average IC50 CDK2 cyclin E1.
The mark [4] stands for this setting: Table 3, read-out: Average IC50 CDK2 cyclin A2.
The mark [5] stands for this setting: Table 3, read-out: Average IC50 CDK4 cyclin D1.
Setting [6] is: Table 4, read-out: Kinase Inhibition IC50 CDK7-cyclin H.
Where [7] appears, read: Table 4, read-out: Kinase Inhibition IC50 CDK2-cyclin E.
Setting [8] is: Table 4, read-out: Kinase Inhibition IC50 CDK2-cyclin A.
The mark [9] stands for this setting: Table 4, read-out: Kinase Inhibition IC50 CDK9-cyclin T1.
The mark [10] stands for this setting: Table 4, read-out: Kinase Inhibition IC50 CDK4-cyclin D1.

CDK9/cyclin T1, sequence (P50750 whole entry): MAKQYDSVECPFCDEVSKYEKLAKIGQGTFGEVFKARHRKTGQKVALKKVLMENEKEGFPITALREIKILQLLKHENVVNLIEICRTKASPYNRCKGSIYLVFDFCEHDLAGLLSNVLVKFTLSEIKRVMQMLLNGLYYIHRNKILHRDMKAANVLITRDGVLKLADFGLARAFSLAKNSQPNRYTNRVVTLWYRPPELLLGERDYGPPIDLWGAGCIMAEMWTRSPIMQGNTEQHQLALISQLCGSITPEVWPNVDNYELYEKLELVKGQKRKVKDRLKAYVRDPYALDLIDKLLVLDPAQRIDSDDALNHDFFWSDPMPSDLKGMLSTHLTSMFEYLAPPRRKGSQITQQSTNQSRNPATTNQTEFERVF
CDK9/cyclin T1, sequence (O60563 whole entry partner): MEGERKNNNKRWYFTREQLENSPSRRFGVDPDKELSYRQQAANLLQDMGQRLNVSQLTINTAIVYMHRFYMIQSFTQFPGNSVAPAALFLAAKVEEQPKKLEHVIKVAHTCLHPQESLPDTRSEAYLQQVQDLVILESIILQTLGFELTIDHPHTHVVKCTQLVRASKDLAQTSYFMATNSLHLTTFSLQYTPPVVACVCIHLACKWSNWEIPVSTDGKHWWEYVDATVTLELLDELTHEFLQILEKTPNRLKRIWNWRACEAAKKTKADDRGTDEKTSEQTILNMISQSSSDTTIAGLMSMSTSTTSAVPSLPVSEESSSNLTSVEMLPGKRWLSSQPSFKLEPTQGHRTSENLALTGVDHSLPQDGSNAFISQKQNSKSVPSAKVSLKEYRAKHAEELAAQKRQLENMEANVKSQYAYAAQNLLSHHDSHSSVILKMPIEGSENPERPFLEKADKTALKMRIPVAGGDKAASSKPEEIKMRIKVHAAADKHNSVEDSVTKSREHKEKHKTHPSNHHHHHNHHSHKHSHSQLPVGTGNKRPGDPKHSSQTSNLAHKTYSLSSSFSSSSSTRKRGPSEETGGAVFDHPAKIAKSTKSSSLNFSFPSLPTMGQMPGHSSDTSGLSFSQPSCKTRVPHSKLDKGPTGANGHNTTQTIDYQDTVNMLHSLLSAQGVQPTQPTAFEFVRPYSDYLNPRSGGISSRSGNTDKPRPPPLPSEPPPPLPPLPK
CDK4/Cyclin D1, sequence (P11802 whole entry, species assumed): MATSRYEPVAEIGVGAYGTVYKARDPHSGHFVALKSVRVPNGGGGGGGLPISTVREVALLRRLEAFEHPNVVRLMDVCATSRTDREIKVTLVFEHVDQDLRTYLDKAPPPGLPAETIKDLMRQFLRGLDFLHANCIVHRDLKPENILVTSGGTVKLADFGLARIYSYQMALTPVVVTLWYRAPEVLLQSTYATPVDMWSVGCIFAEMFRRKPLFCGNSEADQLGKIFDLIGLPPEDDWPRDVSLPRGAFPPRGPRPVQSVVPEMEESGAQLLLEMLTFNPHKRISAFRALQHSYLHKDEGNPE
CDK4/Cyclin D1, sequence (P24385 whole entry partner, species assumed): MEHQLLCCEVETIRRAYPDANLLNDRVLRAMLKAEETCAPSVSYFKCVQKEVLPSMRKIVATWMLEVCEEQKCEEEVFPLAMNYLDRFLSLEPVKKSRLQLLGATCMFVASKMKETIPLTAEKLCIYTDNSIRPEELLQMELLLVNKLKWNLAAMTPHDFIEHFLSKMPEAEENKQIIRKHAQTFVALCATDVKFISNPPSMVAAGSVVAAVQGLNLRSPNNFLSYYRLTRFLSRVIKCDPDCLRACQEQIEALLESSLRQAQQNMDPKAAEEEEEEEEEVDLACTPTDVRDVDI
Procedure for CDK1/Cyclin B: (§2) His-tagged CDK2/Cyclin E and CDK1/Cyclin B may be co-expressed and PKCα singularly expressed in Sf 9 insect cells infected with the appropriate baculovirus constructs. The cells are harvested two days after infection by low speed centrifugation and the proteins purified from the insect cell pellets by Metal-chelate chromatography. Briefly, the insect cell pellet is lysed in Buffer A (10 mM Tris-HCl, pH 8.0, 150 mM NaCl, 0.02% NP40 and 5 mM β-marcaptoethanol, 1 mM NaF. 1 mM Na3VO4 and Protease Inhibitors Coctail (Sigma) containing AEBSF, pepstatin A, E 64, bestatin, leupeptin) by sonication. The soluble fraction is cleared by centrifugation and loaded onto Ni-NTA-Agarose (Quiagen). Non bound proteins were washed off with 300 mM NaCl, 5-15 mM Imidazole in Buffer A and the bound proteins eluted with 250 mM Imidazole in Buffer A. The purified proteins are extensively dialyzed against Storage buffer (20 mM HEPES pH 7.4, 50 mM NaCl, 2 mM DTT, 1 mM EDTA, 1 mM EGTA, 0.02% NP40, 10% v/v Glycerol) aliquoted and stored at −70° C.
Procedure for CDK2/Cyclin E: as §2
Procedure for CDK2/cyclin A: Reactions were stopped on ice, followed by filtration through p81 filterplates (Whatman Polyfiltronics, Kent, UK). After washing 3 times with 75 mM orthophosphoric acid, plates were dried, scintillant added and incorporated radioactivity measured in a scintillation counter (TopCount, Packard Instruments, Pangboume, Berks, UK).

Regarding `Cc1nc(N)sc1-c1ccnc(Nc2ccc(O)cc2)n1` [Compound 98, 4-[4-(2-Amino-4-methyl-thiazol-5-yl)-pyrimidin-2-ylamino]-phenol], the IC50 (usually the concentration needed to halve the response being measured) on CDK9/cyclin T1 (setting [1]) worked out at 45 nM; at CDK7/cyclin H (setting [2]) it was 1000 nM.

For `Cc1nc(C)c(-c2ccnc(Nc3ccc(CCO)cc3)n2)s1` [Compound 123, 2-{4-[4-(2,4-Dimethyl-thiazol-5-yl)-pyrimidin-2-ylamino]-phenyl}-ethanol], the IC50 at CDK2/Cyclin E (setting [3]) is 470 nM; at CDK2/cyclin A (setting [4]) it was 570 nM; at CDK1/Cyclin B it was 1900 nM; at CDK4/Cyclin D1 (setting [5]), 3300 nM.

As for `Cc1nc(N)sc1-c1ccnc(Nc2cccc(F)c2)n1` [Compound 109, [4-(2-Amino-4-methyl-thiazol-5-yl)-pyrimidin-2-yl]-(3-fluoro-phenyl)-amine], the 50% inhibitory concentration (IC50) worked out at 380 nM at CDK2/Cyclin E (setting [3]), 1400 nM at CDK2/cyclin A (setting [4]), 2900 nM against CDK1/Cyclin B and 1200 nM at CDK4/Cyclin D1 (setting [5]).

With `CCN(CC)CCOc1ccc(Nc2nccc(-c3sc(C)nc3C)n2)cc1` [Compound 122, [4-(2-Diethylamino-ethoxy)-phenyl]-[4-(2,4-dimethyl-thiazol-5-yl)-pyrimidin-2-yl]-amine], the IC50 at CDK7/cyclin H (setting [2]) came out at 440 nM.

With `COc1ccc(Nc2nccc(-c3sc(=O)n(C)c3C)n2)cc1` [Compound 157, 5-[2-(4-Methoxy-phenylamino)-pyrimidin-4-yl]-3,4-dimethyl-3H-thiazol-2-one], the results for the IC50 at CDK1/Cyclin B and at CDK7/cyclin H (setting [6]) were 780 nM and 2000 nM, respectively.

In the case of `Cc1nc(C)c(-c2ccnc(Nc3ccc(F)cc3)n2)s1` [Compound 8, [4-(2,4-Dimethyl-thiazol-5-yl)-pyrimidin-2-yl]-(4-fluoro-phenyl)-amine], the half-inhibitory concentration (IC50) on CDK9/cyclin T1 (setting [1]) turned out to be 310 nM; at CDK1/Cyclin B, 17000 nM; at CDK7/cyclin H (setting [2]) it was 16000 nM.

As for `Cc1c(-c2ccnc(Nc3ccc(F)c([N+](=O)[O-])c3)n2)sc(=O)n1C` [Compound 159, 5-[2-(4-Fluoro-3-nitro-phenylamino)-pyrimidin-4-yl]-3,4-dimethyl-3H-thiazol-2-one], the 50% inhibitory concentration (IC50) at CDK2/Cyclin E (setting [7]) amounted to 78 nM; on CDK2/cyclin A (setting [8]), 260 nM; against CDK1/Cyclin B, 820 nM; at CDK7/cyclin H (setting [6]), 1100 nM.

For `COc1ccc(Nc2nccc(-c3sc(C)nc3C)n2)cc1N(C)C` [Compound 130, N^1-[4-(2,4-Dimethyl-thiazol-5-yl)-pyrimidin-2-yl]-4-methoxy-N^3,N^3-dimethyl-benzene-1,3-diamine], the IC50 at CDK2/Cyclin E (setting [3]) came out at 1100 nM; at CDK2/cyclin A (setting [4]), 670 nM; against CDK1/Cyclin B, 470 nM; on CDK4/Cyclin D1 (setting [5]) it was 4100 nM; on CDK7/cyclin H (setting [2]), 4900 nM.

Take `Cc1c(-c2ccnc(Nc3ccc(Cl)cc3)n2)sc(=O)n1C` [Compound 156, 5-[2-(4-Chloro-phenylamino)-pyrimidin-4-yl]-3,4-dimethyl-3H-thiazol-2-one]: the half-maximal inhibitory concentration (IC50) worked out at 270 nM on CDK2/cyclin A (setting [8]), 1400 nM against CDK1/Cyclin B and 8700 nM at CDK7/cyclin H (setting [6]).

For `Cc1cc(Nc2nccc(-c3sc(=O)n(C)c3C)n2)ccc1Cl` [Compound 160, 5-[2-(4-Chloro-3-methyl-phenylamino)-pyrimidin-4-yl]-3,4-dimethyl-3H-thiazol-2-one], the IC50 on CDK9/cyclin T1 (setting [9]) was found to be 150 nM; at CDK2/Cyclin E (setting [7]), 1700 nM; on CDK2/cyclin A (setting [8]) it was 1200 nM; at CDK1/Cyclin B, 1800 nM; at CDK4/Cyclin D1 (setting [10]), 18000 nM.

For `CCN(CCO)c1ccc(Nc2nccc(-c3sc(C)nc3C)n2)cc1` [Compound 124, 2-({4-[4-(2,4-Dimethyl-thiazol-5-yl)-pyrimidin-2-ylamino]-phenyl}-ethyl-amino)-ethanol], the half-inhibitory concentration (IC50) on CDK2/Cyclin E (setting [3]) worked out at 3000 nM; on CDK2/cyclin A (setting [4]), 3700 nM; against CDK1/Cyclin B, 8600 nM; at CDK4/Cyclin D1 (setting [5]) it was 6700 nM.

Turning to `Cc1nc(C)c(-c2ccnc(Nc3cccc(O)c3)n2)s1` [Compound 27, 3-[4-(2,4-Dimethyl-thiazol-5-yl)-pyrimidin-2-ylamino]-phenol], the half-inhibitory concentration (IC50) was found to be 240 nM at CDK9/cyclin T1 (setting [1]), 1200 nM on CDK1/Cyclin B and 3200 nM at CDK7/cyclin H (setting [2]).

For `Cc1ccc(Nc2nccc(-c3sc(=O)n(C)c3C)n2)cc1I` [Compound 161, 5-[2-(3-Iodo-4-methyl-phenylamino)-pyrimidin-4-yl]-3,4-dimethyl-3H-thiazol-2-one], the IC50 on CDK9/cyclin T1 (setting [9]) turned out to be 110 nM; on CDK2/Cyclin E (setting [7]), 3200 nM; at CDK2/cyclin A (setting [8]) it was 710 nM; on CDK1/Cyclin B, 2100 nM; at CDK4/Cyclin D1 (setting [10]) it was 4000 nM.

On to `Cc1nc(C)c(-c2ccnc(Nc3cccc(Cl)c3)n2)s1` [Compound 3, (3-Chloro-phenyl)-[4-(2,4-dimethyl-thiazol-5-yl)-pyrimidin-2-yl]-amine], for which the IC50 on CDK2/Cyclin E (setting [3]) was 5600 nM; against CDK1/Cyclin B it was 32000 nM; at CDK4/Cyclin D1 (setting [5]), more than 50000 nM; at CDK7/cyclin H (setting [2]) it was more than 100000 nM.

Consider `Cc1nc(C)c(-c2ccnc(Nc3cccc(NC(=N)N)c3)n2)s1` [Compound 99, N-{3-[4-(2,4-Dimethyl-thiazol-5-yl)-pyrimidin-2-ylamino]-phenyl}-guanidine], for which the IC50 at CDK9/cyclin T1 (setting [1]) amounted to 260 nM; at CDK7/cyclin H (setting [2]), 310 nM.

As to `CCCCNc1nc(C)c(-c2ccnc(Nc3ccc(F)cc3)n2)s1` [Compound 139, [4-(2-Butylamino-4-methyl-thiazol-5-yl)-pyrimidin-2-yl]-(4-fluoro-phenyl)-amine], the concentration for half-maximal inhibition (IC50) at CDK9/cyclin T1 (setting [1]) was 23000 nM; at CDK2/Cyclin E (setting [3]) it was 1700 nM; at CDK2/cyclin A (setting [4]), 25000 nM; against CDK1/Cyclin B, 47000 nM; at CDK4/Cyclin D1 (setting [5]), 30000 nM.

For `Cc1nc(N)sc1-c1ccnc(Nc2cccc(I)c2)n1` [Compound 113, [4-(2-Amino-4-methyl-thiazol-5-yl)-pyrimidin-2-yl]-(3-iodo-phenyl)-amine], at CDK7/cyclin H (setting [2]), the concentration for half-maximal inhibition (IC50) was determined as 590 nM.

For `COc1cccc(Nc2nccc(-c3sc(N)nc3C)n2)c1` [Compound 108, [4-(2-Amino-4-methyl-thiazol-5-yl)-pyrimidin-2-yl]-(3-methoxy-phenyl)-amine], the 50% inhibitory concentration (IC50) at CDK2/Cyclin E (setting [3]) was 390 nM; at CDK2/cyclin A (setting [4]) it was 910 nM; on CDK1/Cyclin B, 2800 nM; at CDK4/Cyclin D1 (setting [5]) it was 1500 nM.

For `Cc1nc(C)c(-c2ccnc(Nc3ccc(N(C)C)c([N+](=O)[O-])c3)n2)s1` [Compound 127, N^4-[4-(2,4-Dimethyl-thiazol-5-yl)-pyrimidin-2-yl]-N^1,N^1-dimethyl-2-nitro-benzene-1,4-diamine], the 50% inhibitory concentration (IC50) on CDK1/Cyclin B came to 130 nM; at CDK7/cyclin H (setting [2]), 1500 nM.

As to `Cc1c(-c2ccnc(Nc3cccc(O)c3)n2)sc(=O)n1C` [Compound 158, 5-[2-(3-Hydroxy-phenylamino)-pyrimidin-4-yl]-3,4-dimethyl-3H-thiazol-2-one], the IC50 on CDK2/Cyclin E (setting [7]) worked out at 93 nM; on CDK2/cyclin A (setting [8]) it was 86 nM; against CDK1/Cyclin B, 370 nM; on CDK4/Cyclin D1 (setting [10]) it was 1000 nM; on CDK7/cyclin H (setting [6]) it was 1300 nM.

Consider `Cc1c(-c2ccnc(Nc3ccc(N(C)C)cc3)n2)sc(=O)n1C` [Compound 164, 5-[2-(4-Dimethylamino-phenylamino)-pyrimidin-4-yl]-3,4-dimethyl-3H-thiazol-2-one], for which the 50% inhibitory concentration (IC50) at CDK9/cyclin T1 (setting [9]) is 130 nM; against CDK1/Cyclin B, 2200 nM; at CDK4/Cyclin D1 (setting [10]), 1000 nM; on CDK7/cyclin H (setting [6]), 1800 nM.

In the case of `CNc1nc(C)c(-c2ccnc(Nc3ccc(O)cc3)n2)s1` [Compound 48, 4-[4-(4-Methyl-2-methylamino-thiazol-5-yl)-pyrimidin-2-ylamino]-phenol], the IC50 at CDK9/cyclin T1 (setting [1]) is 76 nM; on CDK7/cyclin H (setting [2]) it was 860 nM.

As to `COc1ccc(Nc2nccc(-c3sc(C)nc3C)n2)cc1O` [Compound 126, 5-[4-(2,4-Dimethyl-thiazol-5-yl)-pyrimidin-2-ylamino]-2-methoxy-phenol], the IC50 at CDK9/cyclin T1 (setting [1]) stood at 1300 nM; on CDK2/Cyclin E (setting [3]), 140 nM; on CDK2/cyclin A (setting [4]), 310 nM; against CDK1/Cyclin B it was 1600 nM; at CDK4/Cyclin D1 (setting [5]), 1700 nM.

Regarding `CCNc1nc(C)c(-c2ccnc(Nc3cccc(OC)c3)n2)s1` [Compound 136, [4-(2-Ethylamino-4-methyl-thiazol-5-yl)-pyrimidin-2-yl]-(3-methoxy-phenyl)-amine], the IC50 is 6800 nM at CDK2/Cyclin E (setting [3]), 39000 nM on CDK2/cyclin A (setting [4]) and more than 100000 nM against CDK1/Cyclin B.

With `CCNc1nc(C)c(-c2ccnc(Nc3ccc(C)c([N+](=O)[O-])c3)n2)s1` [Compound 138, [4-(2-Ethylamino-4-methyl-thiazol-5-yl)-pyrimidin-2-yl]-(4-methyl-3-nitro-phenyl)-amine], the results for the half-maximal inhibitory concentration (IC50) at CDK2/Cyclin E (setting [3]), on CDK2/cyclin A (setting [4]) and on CDK1/Cyclin B were 2700 nM, 9500 nM and 41000 nM, respectively.

As for `Cc1nc(C)c(-c2ccnc(Nc3ccc([N+](C)(C)C)cc3)n2)s1` [Compound 104, {4-[4-(2,4-Dimethyl-thiazol-5-yl)-pyrimidin-2-ylamino]-phenyl}-trimethyl-ammonium], the IC50 at CDK9/cyclin T1 (setting [1]) is 140 nM; at CDK7/cyclin H (setting [2]), 390 nM.
